Experimental data: publication PMC7434893 (British Journal of Cancer, 2020)

Tests used:
KLE = assay: 8-day growth inhibition; assay type: cell-based; details: Endometrial, 8-day assay
HEC-265 = assay: 8-day growth inhibition; assay type: cell-based; details: Endometrial, HEC-265, 8-day assay
PARP1 = details: read-out: IC50, enzymatic activity of PARP1; cited from earlier work
ARH-77 = assay: 8-day growth inhibition; assay type: cell-based; details: Myeloma, ARH-77, 8-day assay
[1] = Plasma and urine pharmacokinetics, dose-escalation cohorts; assay type: in vivo, human; details: for AUC(0-inf) / AUC(0–24) / Ae, amount of drug dose excreted in urine / CLR / Cav,ss / Cmax / fe, fraction of dose excreted in urine / t1/2 / AUC(0-t): mean (SD); for tmax: median (min, max)
Experimental: Blood samples were also collected immediately before the dose on day 7 of cycle 1, days 1 and 15 of cycle 2 and on day 1 of cycle 3, and beyond. All urine produced during the time intervals pre-dose, 0–2 h, 2–4 h, 4–10 h and 10–24 h following the single dose on day –2, and after multiple doses on cycle 1, day 15, was collected.

MDA-MB-157 = assay: 8-day growth inhibition; assay type: cell-based; details: Breast, MDA-MB-157, 8-day assay
HEC-59 = assay: 8-day growth inhibition; assay type: cell-based; details: Endometrial, HEC-59, 8-day assay
IM-9 = assay: 8-day growth inhibition; assay type: cell-based; details: B lymphoblast, IM-9, 8-day assay
M14 = assay: 8-day growth inhibition; assay type: cell-based; details: Melanoma, M14, 8-day assay
HT-1080 = assay: 8-day growth inhibition; assay type: cell-based; details: Fibrosarcoma, HT-1080, 8-day assay
PARP = details: 100 mg/kg, preclinical studies; cited from earlier work
AN3 CA = assay: 8-day growth inhibition; assay type: cell-based; details: Endometrial, 8-day assay
JVM-13 = assay: 8-day growth inhibition; assay type: cell-based; details: MCL, JVM-13, 8-day assay
BT-20 = assay: 8-day growth inhibition; assay type: cell-based; details: Breast, BT-20, 8-day assay
[2] = 2-compartment pharmacokinetic model; assay type: in vivo, human; details: model estimate
Description: In the second stage, the final parameters from the pharmacokinetic model were fixed for sequential PK/PD modelling.

HCC1806 = assay: 8-day growth inhibition; assay type: cell-based; details: Breast, HCC1806, 8-day assay
SR = assay: 8-day growth inhibition; assay type: cell-based; details: B cell lymphoma, 8-day assay
[3] = 50 mg once daily, cycle 1 day 15, steady state
[4] = 100 mg once daily, cycle 1 day 15, steady state
[5] = 200 mg once daily, cycle 1 day 15, steady state
[6] = 400 mg once daily, cycle 1 day 15, steady state
[7] = 600 mg once daily, cycle 1 day 15, steady state
[8] = 800 mg once daily, cycle 1 day 15, steady state

O=c1[nH]nc2c3c(cccc13)N=C(CN1Cc3ccccc3C1)N2 [E7449]
IC50 (KLE): 2590 nM
IC50 (HEC-265): 2400 nM
IC50 (PARP1): 1 nM
IC50 (ARH-77): 3200 nM
AUC(0-inf) [1, 3]: 634 (n = 1) ng·h/mL
AUC(0–24) [1, 3]: 714 (193) ng·h/mL
Ae, amount of drug dose excreted in urine [1, 3]: 0.19 (0.00) (n = 2) mg
CLR [1, 3]: 0.3 (0.01) (n = 2) L/h
Cav,ss [1, 3]: 29.7 (8.03) ng/mL
Cmax [1, 3]: 264 (227) ng/mL
fe, fraction of dose excreted in urine [1, 3]: 0.39 (0.01) (n = 2) %
t1/2 [1, 3]: 9.04 (n = 1) h
tmax [1, 3]: 1.00 (0.5, 2.00) h
AUC(0-inf) ([1]; 50 mg, day –2 single dose): 770 (n = 1) ng·h/mL
AUC(0-t) ([1]; 50 mg, day –2 single dose): 603 (213) ng·h/mL
AUC(0–24) ([1]; 50 mg, day –2 single dose): 768 (n = 1) ng·h/mL
Ae, amount of drug dose excreted in urine ([1]; 50 mg, day –2 single dose): 0.11 (0.06) (n = 2) mg
Cmax ([1]; 50 mg, day –2 single dose): 265 (99.8) ng/mL
fe, fraction of dose excreted in urine ([1]; 50 mg, day –2 single dose): 0.22 (0.13) (n = 2) %
t1/2 ([1]; 50 mg, day –2 single dose): 3.42 (n = 1) h
tmax ([1]; 50 mg, day –2 single dose): 2.00 (0.58, 2.03) h
AUC(0-inf) [1, 4]: 1150 (266) ng·h/mL
AUC(0–24) [1, 4]: 1100 (244) ng·h/mL
Ae, amount of drug dose excreted in urine [1, 4]: 0.70 (n = 1) mg
CLR [1, 4]: 0.5 (n = 1) L/h
Cav,ss [1, 4]: 45.8 (10.2) ng/mL
Cmax [1, 4]: 404 (175) ng/mL
fe, fraction of dose excreted in urine [1, 4]: 0.70 (n = 1) %
t1/2 [1, 4]: 8.92 (2.50) h
tmax [1, 4]: 3.00 (1.00, 4.00) h
AUC(0-inf) ([1]; 100 mg, day –2 single dose): 895 (99.8) ng·h/mL
AUC(0-t) ([1]; 100 mg, day –2 single dose): 879 (104) ng·h/mL
AUC(0–24) ([1]; 100 mg, day –2 single dose): 879 (104) ng·h/mL
Ae, amount of drug dose excreted in urine ([1]; 100 mg, day –2 single dose): 0.47 (n = 1) mg
CLR ([1]; 100 mg, day –2 single dose): 0.5 (n = 1) L/h
Cmax ([1]; 100 mg, day –2 single dose): 284 (112) ng/mL
fe, fraction of dose excreted in urine ([1]; 100 mg, day –2 single dose): 0.47 (n = 1) %
t1/2 ([1]; 100 mg, day –2 single dose): 6.35 (3.36) h
tmax ([1]; 100 mg, day –2 single dose): 2.05 (1.08, 3.00) h
AUC(0-inf) [1, 5]: 2670 (1510) (n = 2) ng·h/mL
AUC(0–24) [1, 5]: 3690 (2230) ng·h/mL
Ae, amount of drug dose excreted in urine [1, 5]: 1.11 (0.33) mg
CLR [1, 5]: 0.5 (0.4) L/h
Cav,ss [1, 5]: 154 (93.1) ng/mL
Cmax [1, 5]: 1430 (1080) ng/mL
fe, fraction of dose excreted in urine [1, 5]: 0.55 (0.17) %
t1/2 [1, 5]: 9.19 (4.83) (n = 2) h
tmax [1, 5]: 1.00 (1.00, 2.00) h
AUC(0-inf) ([1]; 200 mg, day –2 single dose): 3320 (1790) (n = 2) ng·h/mL
AUC(0-t) ([1]; 200 mg, day –2 single dose): 3780 (1180) ng·h/mL
AUC(0–24) ([1]; 200 mg, day –2 single dose): 3670 (1170) ng·h/mL
Ae, amount of drug dose excreted in urine ([1]; 200 mg, day –2 single dose): 0.70 (0.60) (n = 3) mg
CLR ([1]; 200 mg, day –2 single dose): 0.2 (0.15) (n = 3) L/h
Cmax ([1]; 200 mg, day –2 single dose): 996 (676) ng/mL
fe, fraction of dose excreted in urine ([1]; 200 mg, day –2 single dose): 0.34 (0.29) (n = 3) %
t1/2 ([1]; 200 mg, day –2 single dose): 7.08 (1.16) (n = 2) h
tmax ([1]; 200 mg, day –2 single dose): 3.10 (1.03, 4.18) h
AUC(0-inf) [1, 6]: 3240 (820) (n = 2) ng·h/mL
AUC(0–24) [1, 6]: 4730 (2730) ng·h/mL
Ae, amount of drug dose excreted in urine [1, 6]: 2.05 (1.09) mg
CLR [1, 6]: 0.4 (0.14) L/h
Cav,ss [1, 6]: 197 (114) ng/mL
Cmax [1, 6]: 1130 (1030) ng/mL
fe, fraction of dose excreted in urine [1, 6]: 0.51 (0.27) %
t1/2 [1, 6]: 4.16 (1.72) (n = 2) h
tmax [1, 6]: 4.00 (0.5, 4.00) h
AUC(0-inf) ([1]; 400 mg, day –2 single dose): 4800 (3000) (n = 3) ng·h/mL
AUC(0-t) ([1]; 400 mg, day –2 single dose): 4800 (2450) ng·h/mL
AUC(0–24) ([1]; 400 mg, day –2 single dose): 4690 (2400) ng·h/mL
Ae, amount of drug dose excreted in urine ([1]; 400 mg, day –2 single dose): 2.77 (1.82) mg
CLR ([1]; 400 mg, day –2 single dose): 0.6 (0.34) L/h
Cmax ([1]; 400 mg, day –2 single dose): 999 (619) ng/mL
fe, fraction of dose excreted in urine ([1]; 400 mg, day –2 single dose): 0.69 (0.45) %
t1/2 ([1]; 400 mg, day –2 single dose): 8.62 (0.54) (n = 3) h
tmax ([1]; 400 mg, day –2 single dose): 2.04 (1.03, 4.05) h
AUC(0-inf) [1, 7]: 9660 (4550) (n = 4) ng·h/mL
AUC(0–24) [1, 7]: 7900 (4730) ng·h/mL
Ae, amount of drug dose excreted in urine [1, 7]: 2.25 (1.28) mg
CLR [1, 7]: 0.3 (0.12) L/h
Cav,ss [1, 7]: 329 (198) ng/mL
Cmax [1, 7]: 2230 (1570) ng/mL
fe, fraction of dose excreted in urine [1, 7]: 0.38 (0.21) %
t1/2 [1, 7]: 5.05 (1.76) (n = 4) h
tmax [1, 7]: 1.14 (0.50, 4.05) h
AUC(0-inf) ([1]; 600 mg, day –2 single dose): 10,700 (5040) (n = 4) ng·h/mL
AUC(0-t) ([1]; 600 mg, day –2 single dose): 8120 (4990) ng·h/mL
AUC(0–24) ([1]; 600 mg, day –2 single dose): 7930 (4990) ng·h/mL
Ae, amount of drug dose excreted in urine ([1]; 600 mg, day –2 single dose): 2.90 (0.51) mg
CLR ([1]; 600 mg, day –2 single dose): 5.0 (13.0) L/h
Cmax ([1]; 600 mg, day –2 single dose): 2250 (1330) ng/mL
fe, fraction of dose excreted in urine ([1]; 600 mg, day –2 single dose): 0.48 (0.09) %
t1/2 ([1]; 600 mg, day –2 single dose): 7.17 (2.98) (n = 4) h
tmax ([1]; 600 mg, day –2 single dose): 2.12 (0.50, 24.3) h
AUC(0-inf) [1, 8]: 12,000 (5910) (n = 4) ng·h/mL
AUC(0–24) [1, 8]: 12,400 (5230) ng·h/mL
Ae, amount of drug dose excreted in urine [1, 8]: 4.70 (2.91) mg
CLR [1, 8]: 0.5 (0.34) L/h
Cav,ss [1, 8]: 516 (218) ng/mL
Cmax [1, 8]: 4120 (2160) ng/mL
fe, fraction of dose excreted in urine [1, 8]: 0.68 (0.47) %
t1/2 [1, 8]: 6.44 (1.56) (n = 4) h
tmax [1, 8]: 0.50 (0.0, 1.97) h
AUC(0-inf) ([1]; 800 mg, day –2 single dose): 12,900 (3350) (n = 4) ng·h/mL
AUC(0-t) ([1]; 800 mg, day –2 single dose): 11,500 (3370) ng·h/mL
AUC(0–24) ([1]; 800 mg, day –2 single dose): 11,300 (3230) ng·h/mL
Ae, amount of drug dose excreted in urine ([1]; 800 mg, day –2 single dose): 4.00 (1.73) mg
CLR ([1]; 800 mg, day –2 single dose): 0.4 (0.12) L/h
Cmax ([1]; 800 mg, day –2 single dose): 4430 (2470) ng/mL
fe, fraction of dose excreted in urine ([1]; 800 mg, day –2 single dose): 0.50 (0.22) %
t1/2 ([1]; 800 mg, day –2 single dose): 9.45 (2.42) (n = 4) h
tmax ([1]; 800 mg, day –2 single dose): 0.79 (0.50, 2.00) h
Drug dose excreted unchanged in urine ([1]; across doses): Less than 1.5%
Elimination half-life, t1/2 ([1]; across doses): approximately 8 h
IC50 (MDA-MB-157): 6800 nM
IC50 (HEC-59): 2440 nM
IC50 (IM-9): 2100 nM
IC50 (M14): 6700 nM
IC50 (HT-1080): 830 nM
PARP inhibition in tumours (PARP): sustained PARP inhibition
IC50 (AN3 CA): 1490 nM
IC50 (JVM-13): 7300 nM
IC50 (BT-20): 7900 nM
k12 ([2]; central to peripheral compartment): 0.21 h⁻¹
V/F, apparent volume of distribution for the central compartment ([2]; all doses fitted): 149.7 L
ka, absorption rate constant ([2]; all doses fitted): 0.82 h⁻¹
ke, first-order elimination rate constant ([2]; all doses fitted): 0.51 h⁻¹
k21 ([2]; peripheral to central compartment): 0.27 h⁻¹
IC50 (HCC1806): 1800 nM
IC50 (SR): 260 nM
